Test results from patent US12194013B2 (SICHUAN JIUZHANG BIOLOGICAL SCIENCE AND TECHNOLOGY CO., LTD., priority 2018, dated 2025).
Marks after values point to notes of the source that are not given here.

Assays:
[1] = test system: head and neck squamous cell carcinoma SCCVII cell lines; test: Transplanted tumor of head and neck squamous cell carcinoma SCCVII cell lines in mice; type: in vivo, mouse; conditions: 30 mg·kg^−1 intraperitoneally once a day; for Tumor volume / Tumor weight / Tumor inhibition rate: C3H/HeJ mice, SCCVII; for Tumor weight: at end of experiment; for Tumor inhibition rate: from average tumor weight vs negative group
Protocol: When the cells grew vigorously, they were digested with 0.25% trypsin, washed with phosphate buffer, and prepared as cell suspension at 3×10^6 cells/ml for use.
0.1 ml cell suspension was subcutaneously injected into the armpit of the left forelimb of mice. They were randomly divided into groups, 10 mice for one group, including test drug group 1, test drug group 2, test drug group 3, test drug group 4, test drug group 5, test drug group 6, test drug group 7, and negative group (N.S.), respectively. The drug was given on the second day after inoculation. The test drug group was intraperitoneally injected at a dose of 30 mg·kg^−1, once a day, and the administration volume was 1.0 ml; in the negative group, the same volume of normal saline was intraperitoneally injected, once a day.
The tumor volume (v=0.52×the long diameter of transplanted tumor L×the shortest diameter of transplanted tumor W^2) was measured on the 5th day after inoculation, and the mice were weighed every three days. When the tumor volume of the negative group was about 1.0 cm^3, the experiment was stopped, and the mice were killed by cervical dislocation and weighed.

[2] = test system: human skin squamous cell carcinoma A431 cells; test: Detecting apoptosis by flow cytometry (Annexin V-FITC/PI); type: cell-based; conditions: 72 h
Protocol: (§1) A431 cell lines were seeded in IMDM medium, containing 10% fetal bovine serum, 100 U·ml^−1 penicillin, and 100 μg·ml^−1 streptomycin, and then cultured in 37° C., 5% CO2 incubator. Cells were passaged one generation at 48-72 h, and the cells in the logarithmic growth phase were collected for the experiment.
The cells of each group treated with different concentrations of test substance for 72 h were collected and made into single cell suspension. The living cells were labeled with Annexin V-FITC and PI. After mixing, the cells were incubated in dark for 15 min at room temperature, and then 1× binding buffer was added and mixed, before the apoptotic cells were detected by flow cytometry and analyzed by Multicyc AV software.

[3] = test system: human skin squamous cell carcinoma A431 cells; test: Inhibition of cell proliferation (MTT method); type: cell-based; conditions: 72 h
Protocol: as §1
The cells in logarithmic growth phase were inoculated on 96 well plate and further cultured for 24 hours, then divided into experimental groups and blank control group. […] The blank control group was added with the same volume of IMDM culture medium without test substance. Six multiple wells were set for each concentration. After 72 hours, the newly prepared MTT solution was added. After further culturing for 4 h, DMSO solution was added and shook, so that the crystals were fully dissolved. The absorbance value (A570 nm) of each well was measured on the microplate reader.

Compound	inhibitory effect on the tumors in mice transplanted with SCCVII cell lines, compared with the negative group (in words) [1]	Tumor volume ([1]; 5 d after inoculation) [cm^3]	Tumor volume ([1]; 8 d after inoculation) [cm^3]	Tumor volume ([1]; 10 d after inoculation) [cm^3]	Tumor volume ([1]; 13 d after inoculation)	Tumor volume ([1]; 15 d after inoculation)	Tumor volume ([1]; 18 d after inoculation)	Tumor weight [1]	Tumor inhibition rate [1] [%]	Apoptosis rate of each experimental group ([2]; 1 μg/ml) [%]	Apoptosis rate of each experimental group ([2]; 2 μg/ml) [%]	Apoptosis rate of each experimental group ([2]; 4 μg/ml) [%]	Apoptosis rate of each experimental group ([2]; 8 μg/ml) [%]	Apoptosis rate of each experimental group ([2]; 16 μg/ml) [%]	Apoptosis rate of each experimental group ([2]; 32 μg/ml) [%]	Apoptosis rate of each experimental group ([2]; 64 μg/ml) [%]	Apoptosis rate of each experimental group ([2]; 128 μg/ml) [%]	also measured
O=C(/C=C/c1ccc(O)cc1)O[C@@H]1C[C@](O)(C(=O)O)C[C@@H](O)[C@H]1O [Coumaroylquinic acid]	not obvious	0.124 ± 0.047	0.258 ± 0.121	0.369 ± 0.114	0.604 ± 0.225* cm^3	0.653 ± 0.111* cm^3	0.811 ± 0.108* cm^3	2.11 ± 0.129^ g	13.17	0.53 ± 0.03	0.55 ± 0.05	0.56 ± 0.04	0.64 ± 0.13	0.69 ± 0.41	1.37 ± 0.36	2.26 ± 0.69	3.07 ± 1.23	Tumor volume ([1]; 22 d after inoculation): 0.954 ± 0.203* cm^3; inhibitory effect on human skin squamous cell carcinoma A431 (in words) ([3]; 1-128 μg/ml): not obvious; The inhibition rate of each experimental group ([3]; A431 cells, 1 μg/ml): 1.24 ± 0.81%; The inhibition rate of each experimental group ([3]; A431 cells, 2 μg/ml): 1.28 ± 0.69%; The inhibition rate of each experimental group ([3]; A431 cells, 4 μg/ml): 1.33 ± 0.42%; The inhibition rate of each experimental group ([3]; A431 cells, 8 μg/ml): 2.41 ± 0.58%; The inhibition rate of each experimental group ([3]; A431 cells, 16 μg/ml): 2.62 ± 0.86%; The inhibition rate of each experimental group ([3]; A431 cells, 32 μg/ml): 5.77 ± 0.92%; The inhibition rate of each experimental group ([3]; A431 cells, 64 μg/ml): 6.83 ± 1.02%; The inhibition rate of each experimental group ([3]; A431 cells, 128 μg/ml): 8.11 ± 0.63%
O=C(/C=C/c1ccc(O)c(O)c1)O[C@@H]1C[C@](O)(C(=O)O)C[C@@H](O)[C@H]1O [Chlorogenic acid]	significant differences	0.124 ± 0.083	0.222 ± 0.079	0.347 ± 0.102	0.436 ± 0.172* cm^3	0.483 ± 0.136* cm^3	0.545 ± 0.224* cm^3	1.43 ± 0.074 g	41.15	0.57 ± 0.04	0.57 ± 0.05	0.61 ± 0.06	0.71 ± 0.11	1.99 ± 0.57	4.56 ± 1.08	4.73 ± 1.22	4.87 ± 0.74	inhibition at 1 µg/mL ([3]; Homo sapiens, A-431, A431 cells, 1 μg/ml, read-out: The inhibition rate of each experimental group): 1.12 ± 0.47%; inhibition at 2 µg/mL ([3]; Homo sapiens, A-431, A431 cells, 2 μg/ml, read-out: The inhibition rate of each experimental group): 1.38 ± 0.53%; inhibition at 4 µg/mL ([3]; Homo sapiens, A-431, A431 cells, 4 μg/ml, read-out: The inhibition rate of each experimental group): 5.63 ± 2.29%; inhibition at 8 µg/mL ([3]; Homo sapiens, A-431, A431 cells, 8 μg/ml, read-out: The inhibition rate of each experimental group): 11 ± 4.71%; inhibition at 16 µg/mL ([3]; Homo sapiens, A-431, A431 cells, 16 μg/ml, read-out: The inhibition rate of each experimental group): 18.6 ± 4.82%; inhibition at 32 µg/mL ([3]; Homo sapiens, A-431, A431 cells, 32 μg/ml, read-out: The inhibition rate of each experimental group): 24.5 ± 9.69%; inhibition at 64 µg/mL ([3]; Homo sapiens, A-431, A431 cells, 64 μg/ml, read-out: The inhibition rate of each experimental group): 31.4 ± 7.35%; inhibition at 128 µg/mL ([3]; Homo sapiens, A-431, A431 cells, 128 μg/ml, read-out: The inhibition rate of each experimental group): 36.3 ± 10.8%
